Experimental data published in US20250057821A1, “METHODS OF TREATING MYELOID MALIGNANCIES USING BCL-2 INHIBITOR” (BeiGene Switzerland GmbH, priority 2022, published 2025).

Tests used:
[1] = tested on: patients with AML; test: Clinical study: antileukemic activity of Compound A in combination with azacitidine in patients with AML; assay type: in vivo, human; conditions: for CR / CR+CRh: 80 mg x 10 day cohort (n=17); for CR/CRh: in combination with azacitidine 75 mg/m2 x 7 days, data cutoff 5 Sep. 2022
Experimental: The clinical study was conducted to evaluate the combination of Compound A and azacitidine in patients with myeloid malignancies, including acute myeloid leukemia (AML) (either treatment-naïve [TN] unfit for intensive induction chemotherapy or relapsed/refractory [R/R]), myelodysplastic syndrome (MDS), or MDS/myeloproliferative neoplasm (MPN). Patients with AML who were treatment-naive unfit for intensive chemotherapy or who are relapsed/refractory were enrolled into the AML cohorts; and patients with myelodysplastic syndrome (MDS) or MDS/myeloproliferative neoplasm (MPN) who were treatment-naïve with high-risk disease or who were relapsed/refractory were enrolled into the MDS cohorts. The AML cohorts enrolls patients with treatment-naive (TN) AML who are unfit for intensive chemotherapy and relapsed/refractory (R/R) AML. The treatment cycles are of 28 days for all AML cohorts, unless recommended otherwise by the Safety Monitoring Committee (SMC). Part 1 AML (Dose Regimen Finding; N≈18 to 36, i.e., a minimum of 6 and a maximum of 12/cohort) studied the safety and tolerability of different dose regimens of Compound A in combination with a fixed dose of azacitidine at 75 mg/m^2 for 7 days. After 3 patients have completed the dose-limiting toxicities (DLT) window, the SMC reviewed all available data and considered the probability of DLT rate to be >20% and recommended whether or not to enroll additional patients (ie, up to 12). If no additional patients were required, the SMC would recommend whether or not to open a subsequent dose regimen in Part 1 and whether to open the dose regimen for Part 2 expansion. […] The window to assess dose-limiting toxicity (DLT) is up to Day 28 for nonhematologic toxicities and Day 42 or initiation of Cycle 2 for hematologic toxicities. The AML Part 1 dose regimen finding cohorts are as follows: • A) Compound A 40 mg daily×10 days with azacitidine (Ramp-up dosing of Compound A: 5 mg, 10 mg, 20 mg, 40 mg) • B) Compound A 80 mg daily×10 days with azacitidine (Ramp-up dosing of Compound A: 10 mg, 20 mg, 40 mg, 80 mg) • C) Compound A 160 mg daily×10 days with azacitidine (Ramp-up dosing of Compound A: 20 mg, 40 mg, 80 mg, 160 mg) • D) Compound A 160 mg daily×28 days with azacitidine (Ramp-up dosing of Compound A: 20 mg, 40 mg, 80 mg, 160 mg) • E) Compound A 320 mg daily×21 days with azacitidine (Ramp-up dosing of Compound A: 40 mg, 80 mg, 160 mg, and 320 mg) • F) Compound A 320 mg daily×28 days with azacitidine (Ramp-up dosing of Compound A: 40 mg, 80 mg, 160 mg, and 320 mg) In all Part 1 AML cohorts and the Part 2 cohort receiving the 28-day dose regimen, the initial dose of azacitidine is given 1 day prior to administration of Compound A (designated as Day 0) to compare baseline PK samples of azacitidine monotherapy with azacitidine in combination with Compound A, which starts on Day 1. In the subsequent cycles and all remaining cohorts, azacitidine administration start on Day 1 concurrently with Compound A. Dosing schema in Part I AML is shown in FIG. 1. Part 2 AML (Safety Expansion; N≈60) treated up to the cohorts each consisting of approximately 10 patients with dose regimens as defined in Part 1 and recommended by the SMC to proceed to Part 2. Part 2 of the study determined safety and antileukemic activity in a larger number of patients with a longer follow-up at dose regimens that were declared tolerable with early signs of activity in Part 1. At a given time, more than one dose regimen may be approved for expansion in Part 2; however, only a single Part 2 AML cohort was to be offered to prospective participants. Patients were preferentially enrolled in any open Part 1 cohort, if applicable. Each Part 2 cohort would continue to enroll up to 10 patients; this would include any additional patients enrolled in Part 1 but not needed for the initial SMC safety review of that cohort. […]

[2] = tested on: patients with AML or MDS or MDS/MPN; test: Clinical study: safety and tolerability of Compound A in combination with azacitidine; assay type: in vivo, human; conditions: treatment of AML or MDS or MDS/MPN, as of 4 Feb. 2023, 97 patients
Experimental: The clinical study was conducted to evaluate the combination of Compound A and azacitidine in patients with myeloid malignancies, including acute myeloid leukemia (AML) (either treatment-naïve [TN] unfit for intensive induction chemotherapy or relapsed/refractory [R/R]), myelodysplastic syndrome (MDS), or MDS/myeloproliferative neoplasm (MPN). Patients with AML who were treatment-naive unfit for intensive chemotherapy or who are relapsed/refractory were enrolled into the AML cohorts; and patients with myelodysplastic syndrome (MDS) or MDS/myeloproliferative neoplasm (MPN) who were treatment-naïve with high-risk disease or who were relapsed/refractory were enrolled into the MDS cohorts.
Part 1 AML (Dose Regimen Finding; N≈18 to 36, i.e., a minimum of 6 and a maximum of 12/cohort) studied the safety and tolerability of different dose regimens of Compound A in combination with a fixed dose of azacitidine at 75 mg/m^2 for 7 days. After 3 patients have completed the dose-limiting toxicities (DLT) window, the SMC reviewed all available data and considered the probability of DLT rate to be >20% and recommended whether or not to enroll additional patients (ie, up to 12). […]
All Part 1, Part 2, and Part 3 cohorts were assessed for DLTs. […]

[3] = R/R patients, in combination with azacitidine
[4] = TN patients, in combination with azacitidine

CC(C)c1ccccc1[C@@H]1CCCN1C1CC2(CCN(c3ccc(C(=O)NS(=O)(=O)c4ccc(NCC5CCC(C)(O)CC5)c([N+](=O)[O-])c4)c(Oc4cnc5[nH]ccc5c4)c3)CC2)C1 (stereo partly drawn) [Compound A, 2-((1H-pyrrolo[2,3-b]pyridin-5-yl)oxy)-N-((4-((((1r,4r)-4-hydroxy-4-methylcyclohexyl)methyl)amino)-3-nitrophenyl)sulfonyl)-4-(2-((S)-2-(2-isopropylphenyl)pyrrolidin-1-yl)-7-azaspiro[3.5]nonan-7-yl)benzamide]
CR [1, 3]: 50% | CR+CRh [1, 3]: 67% | CR [1, 4]: 73% | CR+CRh [1, 4]: 73% | CR/CRh ([1]; R/R AML patients, all dose cohorts): 50% | CR+CRh in TN AML achieved by the end of cycle 1 ([1]; TN AML patients, responders by end of cycle 1 out of all CR+CRh responders, in combination with azacitidine): 15 of 20 | CR/CRh ([1]; TN unfit AML patients, all dose cohorts (40, 80, 160 mg x 10 days, 160 mg x 28 days)): 65% | safety analysis [2]: well-tolerated and safe
